We go through 25 compounds from US20220402869A1, “TRANSCRIPTIONAL ENHANCED ASSOCIATE DOMAIN (TEAD) TRANSCRIPTION FACTOR INHIBITORS AND USES THEREOF” (Dana-Farber Cancer Institute, Inc., priority 2018, published 2022).

This assay has as its system TEAD transcriptional activity. Nature of the assay: Inhibition of TEAD-driven transcription (8×GTIIC-luciferase reporter assay). The class given is cell-based. Conditions: 40 μM at 24 hour treatment. The protocol:
The compounds were tested for their ability to inhibit TEAD-driven transcription.
8×GTIIC-luciferase plasmid, containing 8 TEAD binding sites (ACATTCCA), was obtained from Addgene (Addgene #34615). MDA-MB-231 cells were transfected with 8×GTIIC-luciferase and stable clone was obtained using neomycin selection. The TEAD transcriptional activity was monitored by assessing the luciferase activity using luciferase assay system (Promega). Each data point represents mean±standard deviation.
For `C=CC(=O)N1CC[C@H](Nc2cccc(C(F)(F)F)c2C)C1` [Compound I-57, (S)-1-(3-((2-methyl-3-(trifluoromethyl)phenyl)amino)pyrrolidin-1-yl)prop-2-en-1-one], the inhibition at 40 µM came to 70%.

On to `O=C(CCl)N1CCC[C@@H](Nc2cccc(C(F)(F)F)c2)C1` [Compound I-2, (R)-2-chloro-1-(3-((3-(trifluoromethyl)phenyl)amino)piperidin-1-yl)ethan-1-one], for which the inhibition at 40 µM came to 50%. Next, `O=C(CCl)N1CCC[C@H](Nc2cccc(C(F)(F)F)c2)C1` [Compound I-14, (S)-2-chloro-1-(3-((3-(trifluoromethyl)phenyl)amino)piperidin-1-yl)ethan-1-one]: 70%. For `C=CC(=O)N1CC[C@H](Nc2cccc(N3CCN(C)CC3)c2)C1` [Compound I-49, (S)-1-(3-((3-(4-methylpiperazin-1-yl)phenyl)amino)pyrrolidin-1-yl)prop-2-en-1-one] the value was 50%. Next, `C=CC(=O)N1C[C@@H](O)[C@H](Nc2cccc(C(F)(F)F)c2)C1` [Compound I-62, 1-((3R,4R)-3-hydroxy-4-((3-(trifluoromethyl)phenyl)amino)pyrrolidin-1-yl)prop-2-en-1-one]: 70%; `C=CC(=O)N1CC[C@H](Nc2cc(C(F)(F)F)cc(C(F)(F)F)c2)C1` [Compound I-50, (S)-1-(3-((3,5-bis(trifluoromethyl)phenyl)amino)pyrrolidin-1-yl)prop-2-en-1-one]: 90%; `C=CC(=O)N1CCC[C@H](Nc2cccc(C(F)(F)F)c2)C1` [Compound I-15, (S)-1-(3-((3-(trifluoromethyl)phenyl)amino)piperidin-1-yl)prop-2-en-1-one]: 70%.

Regarding `O=C(CCl)N1CCC(Nc2cccc(C(F)(F)F)c2)C1` (stereo not shown) [Compound I-10, 2-chloro-1-(3-((3-(trifluoromethyl)phenyl)amino)pyrrolidin-1-yl)ethan-1-one], the inhibition at 40 µM was 90%. `C=CC(=O)N1CC[C@H](Nc2cc(Cl)cc(C(F)(F)F)c2)C1` [Compound I-52, (S)-1-(3-((3-chloro-5-(trifluoromethyl)phenyl)amino)pyrrolidin-1-yl)prop-2-en-1-one] yielded an inhibition at 40 µM of 70%. For `C=CC(=O)N1CC[C@H](Nc2cc(C(F)(F)F)ccc2Cl)C1` [Compound I-51, (S)-1-(3-((2-chloro-5-(trifluoromethyl)phenyl)amino)pyrrolidin-1-yl)prop-2-en-1-one] the value was 90%. As for `C=CC(=O)N1CC[C@H](N(C)c2cccc(C(F)(F)F)c2)C1` [Compound I-48, (S)-1-(3-(methyl(3-(trifluoromethyl)phenyl)amino)pyrrolidin-1-yl)prop-2-en-1-one], the inhibition at 40 µM was determined as 50%.

For the compound `O=C(CCl)N1CCCC(Nc2cccc(C(F)(F)F)c2)C1` (stereo not shown) [Compound I-19, 2-chloro-1-(3-((3-(trifluoromethyl)phenyl)amino)piperidin-1-yl)ethan-1-one], the inhibition at 40 µM amounted to 50%. For `CCC(=O)N1CCC(Nc2cccc(C(F)(F)F)c2)C1` (stereo not shown) [Compound I-27, 1-(3-((3-(trifluoromethyl)phenyl)amino)pyrrolidin-1-yl)propan-1-one] the value was 70%; for `C=CC(=O)N1CCC[C@@H](Nc2cccc(C(F)(F)F)c2)C1` [Compound I-1, (R)-1-(3-((3-(trifluoromethyl)phenyl)amino)piperidin-1-yl)prop-2-en-1-one], 50%. Next, `C=CC(=O)N1CC[C@H](Nc2cccc(C(F)(F)F)c2N)C1` [Compound I-65, (S)-1-(3-((2-amino-3-(trifluoromethyl)phenyl)amino)pyrrolidin-1-yl)prop-2-en-1-one]: 90%; `O=C(CCl)N1CCC[C@@H](Oc2cccc(C(F)(F)F)c2)C1` [Compound I-20, (R)-2-chloro-1-(3-(3-(trifluoromethyl)phenoxy)piperidin-1-yl)ethan-1-one]: 70%. For `C=CC(=O)N1CC[C@H](Nc2cncc(C(F)(F)F)c2)C1` [Compound I-61, (S)-1-(3-((5-(trifluoromethyl)pyridin-3-yl)amino)pyrrolidin-1-yl)prop-2-en-1-one] the value was 50%; for `C=CC(=O)N1CCC(Nc2cccc(C(F)(F)F)c2)C1` (stereo not shown) [Compound I-11, 1-(3-((3-(trifluoromethyl)phenyl)amino)pyrrolidin-1-yl)prop-2-en-1-one], 90%; for `O=C(CCl)N1CC(c2cccc(C(F)(F)F)c2)c2ccccc21` (stereo not shown) [Compound I-35, 2-chloro-1-(3-(3-(trifluoromethyl)phenyl)indolin-1-yl)ethan-1-one], 70%. Compound `C=CC(=O)N1CCC[C@@H](Oc2cccc(C(F)(F)F)c2)C1` [Compound I-21] came in with an inhibition at 40 µM of 70%. Next, `C=CC(=O)N1CC[C@H](Oc2cccc(C(F)(F)F)c2)C1` [Compound I-58, (S)-1-(3-(3-(trifluoromethyl)phenoxy)pyrrolidin-1-yl)prop-2-en-1-one]: 70%.

As to `CN(C)C/C=C/C(=O)N1CC[C@H](Nc2cccc(C(F)(F)F)c2)C1` [Compound I-47, (S,E)-4-(dimethylamino)-1-(3-((3-(trifluoromethyl)phenyl)amino)pyrrolidin-1-yl)but-2-en-1-one], the inhibition at 40 µM worked out at 50%. For `O=C(CCl)Nc1ccccc1Nc1cccc(C(F)(F)F)c1` [Compound I-31, 2-chloro-N-(2-((3-(trifluoromethyl)phenyl)amino)phenyl)acetamide] the value was 90%; for `C=CC(=O)N1CC[C@H](Nc2cc(C(F)(F)F)ccc2OC)C1` [Compound I-56, (S)-1-(3-((2-methoxy-5-(trifluoromethyl)phenyl)amino)pyrrolidin-1-yl)prop-2-en-1-one], 50%; for `C#Cc1cc(N[C@@H]2CCCN(C(=O)CCl)C2)cc(C(F)(F)F)c1` [Compound I-18], 50%.
